Laboratory results from paper PMC4858736, “Inhibition of cyclic diadenylate cyclase, DisA, by polyphenols” (Scientific Reports, 2016).

Target: T1, DisA (Bacillus subtilis, UniProt P37573)
T1 sequence (P37573 1-360): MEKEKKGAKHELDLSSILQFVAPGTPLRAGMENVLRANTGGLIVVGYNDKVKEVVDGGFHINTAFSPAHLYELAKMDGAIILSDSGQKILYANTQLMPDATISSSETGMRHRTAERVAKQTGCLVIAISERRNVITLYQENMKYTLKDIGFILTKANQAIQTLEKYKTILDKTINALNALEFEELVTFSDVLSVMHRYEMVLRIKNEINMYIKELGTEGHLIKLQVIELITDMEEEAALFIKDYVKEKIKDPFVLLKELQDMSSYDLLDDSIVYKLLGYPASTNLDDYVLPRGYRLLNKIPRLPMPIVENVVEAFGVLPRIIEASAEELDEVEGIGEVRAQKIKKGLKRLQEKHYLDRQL
Assay: […]-ATP TLC diadenylate cyclase assay with purified DisA; HPLC and coralyne assays
Type: biochemical

IC50: 23.6 µM
Structure (SMILES): O=C(O[C@@H]1Cc2c(O)cc(O)cc2O[C@@H]1c1cc(O)c(O)c2c(=O)c(O)cc([C@H]3Oc4cc(O)cc(O)c4C[C@H]3O)cc12)c1cc(O)c(O)c(O)c1 [TF2B, theaflavin-3′-gallate]
